According to US20110182992A1, “PEPTIDES AND PEPTIDE MIMETICS TO TREAT PATHOLOGIES ASSOCIATED WITH EYE DISEASE” (priority 2008, published 2011):

Assays:
human LDL = assay: Treating human LDL in vitro: removal of seeding molecules
Source text: (§1) We discovered that normal HDL inhibits three steps in the formation of mildly oxidized LDL. […] These seeding molecules were required for cocultures of human artery wall cells to be able to oxidize LDL and for the LDL to induce the artery wall cells to produce monocyte chemotactic activity.

mice = assay: LDL isolated after injection of apo A-I into mice: oxidation by human artery wall cells; assay type: in vivo, mouse
Source text: as §1

human volunteers = assay: LDL isolated after infusion of apo A-I into humans: oxidation by human artery wall cells; assay type: in vivo
Source text: as §1

ApoE null mice [1] = assay: HDL function after D-4F and/or statin in the drinking water; assay type: in vivo, mouse; conditions: 0.05 mg/ml in the drinking water for 24 hours
C57Bl/6J-apoE null mice = assay: Intravitreal L-4F: electron microscopy of Bruch's membrane of aged C57Bl/6J-apoE null mice; assay type: in vivo, mouse
Source text: In every other RPE cell big lipid vacuoles (asterisks) are found, a sign of stress and beginning degeneration. PR: photo receptors; CC: choriocapillaris: EC: vascular endothelial cell of the choriocapillaris.
The membrane is slightly thickened with multiple translucent lipid vacuoles. A few are marked with asterisks. EC: vascular endothelial cell of choriocapillaris.
An effective clearance of this lipid debris via an ApoA-I mimetic peptide (L-4F) could prevent early AMD-like degeneration.
L-4F was injected directly into the vitreous cavity of right eyes of 10 eight month old C57Bl/6J-apoE null mice. A single dose of 3 μl was injected with a L-4F concentration of 400 μg/ml. All left eyes were untreated throughout the study and thus be served as controls. The animals were then sacrificed 21 days after the injection and the eyes were immediately enucleated and fixed. Eyes then were processed for electron microscopy (EM).

[2] = Association with pre-beta HDL / HDL and clearance from the circulation after an oral dose; conditions: mouse, in vivo
[3] = tested on: human aortic endothelial cells; assay: Prevention of LDL-induced monocyte chemotactic activity, co-incubation; assay type: cell-based; conditions: co-incubation with control human LDL 200 μg protein/ml, overnight
[4] = tested on: human aortic endothelial cells; assay: Prevention of LDL-induced monocyte chemotactic activity by pre-treatment of artery wall cells; assay type: cell-based; conditions: 6 hrs pre-incubation with peptide, wash, then control human LDL 200 μg protein/ml overnight
Method: FIG. 2 illustrates the prevention of LDL-induced monocyte chemotactic activity by pre-treatment of artery wall cells with D-J336 as compared to D-4F. The data are mean±SD of the number of migrated monocytes in nine high power fields in quadruple cultures.
FIG. 2 illustrates a comparison of the effect of D-4F with the effect of D-J336 on the prevention of LDL induced monocyte chemotactic activity in a pre-incubation. Human aortic endothelial cells were pre-incubated with D-J336 or D-4F at 4, 2, and 1µg/ml for DJ336 or 100, 50, 25, and 12.5 μg/ml for D-4F for 6 hrs. The cultures were then washed and were incubated with medium alone (no addition), or with control human LDL (200 μg protein/ml), or with control human LDL+ control human HDL (350 μg HDL protein/ml) as assay controls. The wells that were pre-treated with peptides received the control human LDL at 200 μg protein/ml. Following overnight incubation, the supernatants were assayed for monocyte chemotactic activity.

LDL receptor null mice = assay: HDL protective capacity in LDL receptor null mice given peptide in drinking water; assay type: in vivo; conditions: 0.25 or 0.5 mg per ml of drinking water, 24 or 48 hrs, mouse HDL at 100 μg/ml
Method: FIG. 3 illustrates the effect of apo J peptide mimetics on HDL protective capacity in LDL receptor null mice. The values are the mean±SD of the number of migrated monocytes in 9 high power fields from each of quadruple assay wells.
D-4F designated as F, or the apoJ peptide made from D amino acids (D-J336, designated as J) was added to the drinking water of LDL receptor null mice (4 per group) at 0.25 or 0.5 mg per ml of drinking water. After 24- or 48-hrs blood was collected from the mice and their HDL was isolated and tested for its ability to protect against LDL-induced monocyte chemotactic activity. Assay controls included culture wells that received no lipoproteins (no addition), or control human LDL alone (designated as LDL, 200µg cholesterol/ml), or control LDL+ control human HDL (designated as +HDL, 350µg HDL cholesterol). For testing the mouse HDL, the control LDL was added together with mouse HDL (+F HDL or +J HDL) to artery wall cell cultures. The mouse HDL was added at 100 μg cholesterol/ml respectively.

ApoE null mice [5] = assay: Protection against LDL-induced monocyte chemotactic activity by HDL from apo E null mice given oral peptides; assay type: in vivo, mouse
Source text: FIG. 4 illustrates protection against LDL-induced monocyte chemotactic activity by HDL from apo E null mice given oral peptides. The values are the mean±SD of the number of migrated monocytes in 9 high power fields from each of quadruple assay wells. Asterisks indicate significant difference (p<0.05) as compared to No Peptide mHDL.
After 24 hrs blood was collected, plasma fractionated by FPLC and fractions containing LDL (designated as mLDL for murine LDL) and fractions containing HDL (designated as mHDL) were separately pooled and HDL protective capacity against LDL oxidation as determined by LDL-induced monocyte chemotactic activity was determined. For the assay controls the culture wells received no lipoproteins (no additions), mLDL alone (at 200 μg cholesterol/ml), or mLDL+ standard normal human HDL (designated as Cont. h HDL, at 350 μg HDL cholesterol/ml).
For testing the murine HDL, mLDL together with murine HDL (+F mHDL or +J mHDL) were added to artery wall cell cultures. […] The murine HDL was used at 100µg cholesterol/ml.

ApoE null mice [6] = assay: Ability of LDL from apoE null mice given oral peptides to induce monocyte chemotactic activity (LDL susceptibility to oxidation); assay type: in vivo, mouse; conditions: added to the drinking water, 24 hrs
Source text: FIG. 5 illustrates the effect of oral apo A-1 peptide mimetic and apoJ peptide on LDL susceptibility to oxidation. The values are the mean±SD of the number of migrated monocytes in 9 high power fields from each of quadruple assay wells. Asterisks indicate significant difference (p<0.05) as compared to No Peptide LDL.
FIG. 5 illustrates the effect of oral apo A-1 peptide mimetic and apoJ peptide on LDL susceptibility to oxidation. […] After 24 hrs blood was collected from the mice shown in FIG. 4, plasma fractionated by FPLC and fractions containing LDL (designated as mLDL for murine LDL) were pooled and LDL susceptibility to oxidation as determined by induction of monocyte chemotactic activity was determined. For the assay controls the culture wells received no lipoproteins (no additions), mLDL alone (at 200 μg cholesterol/ml), or mLDL+ standard normal human HDL (designated as Cont. h HDL, 350 μg HDL cholesterol).
Murine LDL, mLDL, from mice that received the D-4F (F mLDL) or those that received the apoJ peptide (J mLDL) were added to artery wall cell cultures.

ApoE null mice [7] = assay: Protection against PAPC oxidation by HPODE and induction of monocyte chemotactic activity by HDL from apo E null mice given oral peptides; assay type: in vivo, mouse; conditions: added to the drinking water, 24 hrs; murine HDL 100 μg cholesterol/ml
Method: The values are the mean±SD of the number of migrated monocytes in 9 high power fields from each of quadruple assay wells. Asterisks indicate significant difference (p<0.05) as compared to No Peptide mHDL.
After 24 hrs blood was collected, plasma fractionated by FPLC and fractions containing HDL (designated as mHDL) were pooled and HDL protective capacity against PAPC oxidation as determined by the induction of monocyte chemotactic activity was determined. For the assay controls the culture wells received no lipoproteins (no additions), the phospholipid PAPC at 20µg/ml+HPODE, at 1.0 μg/ml, or PAPC+HPODE plus standard normal human HDL (at 350 μg HDL cholesterol/ml and designated as +Cont. h HDL).
For testing the murine HDL, PAPC+HPODE together with murine HDL (+F mHDL or +J mHDL) were added to artery wall cell cultures. […] The murine HDL was used at 100 μg cholesterol/ml.

PON1 = conditions: added to the drinking water, 24 hrs
Method: The values are the mean±SD of readings from quadruple plasma aliquots.
After 24 hrs blood was collected and plasma was assayed for PON1 activity.

[8] = tested on: mice fed an atherogenic diet; conditions: 20 μg daily injected; cited from earlier work

apo A-I: apolipoprotein A-I, the major protein of HDL
removal of seeding molecules from human LDL in vitro (human LDL): removed seeding molecules from the LDL that included HPODE and HPETE | oxidation of LDL isolated after injection, by human artery wall cells, and induction of monocyte chemotactic activity (mice): resistant to oxidation by human artery wall cells and did not induce monocyte chemotactic activity | oxidation of LDL isolated after infusion, by human artery wall cells, and induction of monocyte chemotactic activity (human volunteers): resistant to oxidation by human artery wall cells and did not induce monocyte chemotactic activity

CC(C)c1c(C(=O)Nc2ccccc2)c(-c2ccccc2)c(-c2ccc(F)cc2)n1CC[C@@H](O)C[C@@H](O)CC(=O)O [atorvastatin, reference compound]
HDL function, statin alone (ApoE null mice [1]): did not improve HDL function

Ac-D-W-F-K-A-F-Y-D-K-V-A-E-K-F-K-E-A-F-NH2 (Ac-DWFKAFYDKVAEKFKEAF-NH2) [Peptide L-4F]
Bruch's membrane structure, electron microscopy of treated eyes (C57Bl/6J-apoE null mice; magnification 5,000×): regular and uniform Bruch's membrane structure | lipid droplets in RPE cells, electron microscopy of treated eyes (C57Bl/6J-apoE null mice; magnification 5,000×): none of the RPE cells showed lipid droplets | translucent lipid vacuoles in Bruch's membrane, electron microscopy of a treated eye (C57Bl/6J-apoE null mice; magnification 20,000×): no translucent lipid vacuoles shown | Bruch's membrane and RPE morphology and lipid content of treated eyes compared to untreated eyes (EM) (C57Bl/6J-apoE null mice; single intravitreal 3 μl of 400 μg/ml, 21 days, EM of 2 mice): significant improvement in Bruch's membrane and RPE morphology as well as lipid content

Ac-LVGRQLEEFL-NH2 [D-[113-122]apoJ]
association with pre-beta HDL and HDL [2]: slowly associates with pre-beta HDL and to a lesser extent with HDL | time it remains associated with the HDL fractions (pre-beta HDL, HDL) [2]: at least 36 hours

Ac-LLEQLNEQFNWVSRLANLTQGE-NH2 [D-J336]
in vitro concentration that prevents LDL-induced monocyte chemotactic activity by human artery wall cells, relative to the concentration required for the D-4F peptide [3]: 10 to 25 times less | potency in preventing LDL oxidation by artery wall cells in vitro, compared with D-4F [4]: 10-25 times more potent | activity of mouse HDL in preventing control LDL from inducing artery wall cells to produce monocyte chemotactic activity (LDL receptor null mice): as active as 350 μg/ml of control human HDL | activity of murine HDL against LDL-induced monocyte chemotactic activity (ApoE null mice [5]; ApoE null mice, peptide in drinking water 24 hrs, murine HDL at 100 μg/ml): as active as 350µg/ml of normal human HDL | potency in enhancing HDL protective capacity in apo E null mice (ApoE null mice [5]; added to the drinking water, 24 hrs): as potent as D-4F | potency in rendering LDL from apo E null mice resistant to oxidation by human artery wall cells (induction of monocyte chemotactic activity) (ApoE null mice [6]): slightly more potent than D-4F | potency in causing HDL to inhibit oxidation of PAPC by HPODE in a human artery wall co-culture (monocyte chemotactic activity) (ApoE null mice [7]): as potent as D-4F | potency in increasing the paraoxonase activity of apo E null mice (PON1): at least as potent as D-4F

Ac-D-W-L-K-A-F-Y-D-K-V-F-E-K-F-K-E-F-F-NH2 (Ac-DWLKAFYDKVFEKFKEFF-NH2) [Peptide 5F]
LDL from PBS-injected mice compared with LDL from peptide-injected mice: oxidation and induction of monocyte chemotactic activity [8]: more readily oxidized and more readily induced monocyte chemotactic activity than LDL taken from mice fed the same diet but injected with 20µg daily of peptide 5F
